“Also recorded” adds a separate entry of the source. Blank lines part the entries; values can stand above or below the molecule they belong to.
Legend:
[1] = tested on: KG-1, HL-60, K562, THP-1 cells; type: cell-based
FOXM1 [2] = biological target: T1, FOXM1 (Homo sapiens, UniProt Q08050); assay: FOXM1 protein levels by immunoblotting in leukemia/AML cell lines; type: cell-based; set-up: Total protein samples obtain from treated cells were analyzed for FOXM1 protein levels via immunoblotting; endogenous in cells; host or cells: KG-1, HL-60, K562, THP-1 leukemia cell lines; conditions: for FOXM1 level / effect on FOXM1 protein levels suppressed by STL001: KG-1 cells; for effect on FOXM1 protein levels suppressed by STL001: co-treatment with STL001, 24 h
T1 sequence (Q08050 1-763): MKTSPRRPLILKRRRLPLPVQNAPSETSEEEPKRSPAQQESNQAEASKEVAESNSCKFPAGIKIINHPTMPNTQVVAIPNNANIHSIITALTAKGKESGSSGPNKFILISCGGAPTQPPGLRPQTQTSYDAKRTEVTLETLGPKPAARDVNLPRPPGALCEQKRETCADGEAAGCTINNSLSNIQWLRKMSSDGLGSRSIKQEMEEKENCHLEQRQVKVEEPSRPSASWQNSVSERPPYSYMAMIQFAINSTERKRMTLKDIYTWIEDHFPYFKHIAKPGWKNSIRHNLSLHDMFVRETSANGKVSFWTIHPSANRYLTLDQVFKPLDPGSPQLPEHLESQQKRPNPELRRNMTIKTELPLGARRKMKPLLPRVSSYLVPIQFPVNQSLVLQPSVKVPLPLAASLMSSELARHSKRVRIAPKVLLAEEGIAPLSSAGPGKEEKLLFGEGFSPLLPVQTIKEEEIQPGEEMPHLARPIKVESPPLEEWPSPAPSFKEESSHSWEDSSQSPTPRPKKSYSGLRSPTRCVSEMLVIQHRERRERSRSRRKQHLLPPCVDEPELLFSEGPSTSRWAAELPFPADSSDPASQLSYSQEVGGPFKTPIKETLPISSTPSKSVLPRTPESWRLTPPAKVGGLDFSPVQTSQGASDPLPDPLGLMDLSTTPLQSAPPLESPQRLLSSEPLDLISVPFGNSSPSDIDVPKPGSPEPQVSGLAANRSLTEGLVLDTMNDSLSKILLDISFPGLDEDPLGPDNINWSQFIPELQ
Method: [a] Leukemia cells, KG-1, HL-60 and K562 were treated with increasing concentrations of STL427944 for 24 hrs. […] [b] THP1 and KG-1 cells were treated with indicated concentrations of venetoclax and STL427944 alone or in combination for 24 hrs. [c] KG-1 and K562 cells were treated with indicated concentrations of cytarabine and STL427944 alone or in combination for 24 hrs.
FIG. 8. STL427944 treatment of human leukemia cell lines suppress FOXM1 protein expression. (a) STL427944 treatment of human leukemia cell lines inhibit FOXM1 protein expression and sensitize cells to venetoclax treatment. […] (b) Stable shRNA-mediated FOXM1 knockdown prominently sensitizes KG-1 cells to cytotoxic effect of venetoclax. (c, d) combined treatment with STL427944 and venetoclax suppresses FOXM1 in KG-1 and THP-1 cells and synergistically promotes cytotoxic effects similarly to FOXM1 knockdown. Total protein was isolated from cells immediately after the treatment and analyzed via immunoblotting with FOXM1 antibodies). Apoptosis induction was estimated based on caspase-3 cleavage.
FIGS. 9A and 9B: Novel FOXM1 inhibitor STL001 sensitizes Leukemia cells to chemotherapy agents. [a] Structural formula of novel FOXM1 inhibitor STL001. [b] Leukemia cells, KG-1, HL-60, and K562 were treated with increasing concentrations of STL001 for 24 hrs. […] [c] KG-1 cells were treated with indicated concentrations of Laptomycin B, Chloroquine, and STL001 for 24 hrs. […] [d] KG-1, HL-60, and K562 cells were treated with indicated concentrations of venetoclax and STL001 alone or in combination for 24 hrs. [e] KG-1, HL-60, and K562 cells were treated with indicated concentrations of cytarabine and STL alone or in combination for 24 hrs.
FIGS. 13A-13H STL001 is a novel FOXM1 inhibitor that sensitizes leukemia cells to standard cytotoxic and bcl2 inhibitor therapies. FIG. 13A AML cell line KG-1 treated with precursor compound STL427944. FIG. 3B AML cell lines KG-1, HL-60, and K562 were treated with increasing concentrations of STL001 for 24 h. Total protein samples obtained from treated cells were analyzed for FOXM1 protein levels using immunoblotting; β-actin was used as the internal loading control. FIG. 13C KG-1, HL-60, and K562 cells were treated with indicated concentrations of venetoclax and STL001 alone or in combination for 24 h. FIG. 13D KG-1, HL-60, and K562 cells were treated with indicated concentrations of cytarabine and STL001 alone or in combination for 24 h. […] FIG. 13E KG-1 cells were treated with indicated concentrations of Leptomycin B, Chloroquine, and STL001 for 24 h. Total protein samples obtained from treated cells were analyzed for FOXM1 protein levels via immunoblotting; β-actin was used as an internal loading control. FIG. 13F KG-1 cell lines with shRNA knockdown of FOXM1 were treated with venetoclax and STL001 and compared to parental cells. FIG. 13G Real-time PCR-based expression profiling for canonical FOXM1 target genes was performed on primary AML mononuclear cells (n=5) treated ex vivo with STL001 5 μM for 24 h. Mean and standard error of the delta Ct for DMSO or treatment group are plotted for each gene. P-value is estimated by two-tailed paired t-test. Asterisks denote P<0.05. FIG. 13H Treatment of peripheral blood mononuclear cells with STL001 for 24 h followed by immunohistochemistry for FOXM1. Slides were scanned on an Aperio AT2 brightfield scanner and images were analyzed using HALO 2.0 software. Hematoxylin counterstain was used to segment nuclei within the ROIs and to establish an accurate cell count. Percent cells with nuclear FOXM1 expression compared between DMSO and STL001 treated cells. P-value is based on one-tailed paired t-test.

NPM1c mutant AML cells = conditions: cited from earlier work
[3] = tested on: HCT-116 and HCT-FET cells; assay: Chemosensitization (caspase-3 cleavage) of colorectal cancer cells to 5′FU; type: cell-based, human
Method: FIG. 16. […] (A) Ovarian cancer (OVCAR-8 and ES-2) cells were treated with indicated concentrations of Doxorubicin (Doxo) alone or in combination with STL001 for 24 hrs. […] (C) colon cancer (HCT-116 and FET) cells were treated with indicated concentrations of 5′FU alone or in combination with STL001 for 24 hrs.

FOXM1 [4] = biological target: T1, FOXM1; assay: FOXM1 protein levels by immunoblotting in solid cancer cell lines
Method: Cell culture: Human cell lines LNCaP and 22Rv1 (human prostate carcinoma), OVCAR8 and ES-2 (High-grade serous ovarian cancer, HGSOC), HCT-116 and HCT-FET (human colorectal carcinoma), HCC-1143 (triple negative breast cancer (TNBC), TAMR (Tamoxifen resistant MCF7) human breast cancer, were provided from various investigators. LNCaP and 22Rv1 cell lines were cultured in RPMI-1640 with 2 mM L-Glutamine (Gibco; Thermo Fisher Scientific, Waltham, MA, USA). HCC-1143 cell lines were cultured in Iscove's Modified Dulbecco Medium (IMDM) with 2 mM L-Glutamine (Gibco; Thermo Fisher Scientific). OVCAR-8, ES-2, HCT-116, and HCT-FET cell lines were cultured in Dulbecco's Modified Eagle Medium (DMEM) with 4.5 g/L glucose and 4 mM L-Glutamine (Gibco; Thermo Fisher Scientific). For all cell lines, the growth media was supplemented with 10% Foetal Bovine Serum (FBS), penicillin (100 U/mL), and 100 μg/mL streptomycin (Gibco; Thermo Fisher Scientific). TAMR cells were routinely cultured in DMEM/F12 medium without phenol red (Gibco; Thermo Fisher Scientific), containing 1% charcoal-striped FBS, 2.5 mM L-Glutamine (Thermo Fisher Scientific), 6 ng/mL insulin (Millipore Sigma) and 50 nM 4-hydroxytamoxifen (4-OHT; Millipore Sigma). All cell lines were grown and maintained at 37° C. in a humidified incubator with 5% CO2. Sub-confluent cultures (70-80%) were split 1:5 using 0.25% Trypsin/EDTA (Millipore Sigma).
Drug treatment of cultured cells: After harvesting, cells were counted in presence of Trypan Blue (Thermo Fisher Scientific) and seeded onto tissue culture plates to achieve ~50% confluency. The next day, treatment of cells was performed by aspirating the nonadherent cells and growth medium and replacing it with the fresh one containing selected concentrations of drugs. For Tamoxifen based studies, the nonadherent cells and growth media was aspirated and replaced with the DMEM supplemented with 4.5 g/L glucose and 4 mM L-Glutamine, 10% FBS, penicillin (100 U/mL), 100 μg/mL streptomycin, 10 nM estrogen, and selected concentrations of drugs. […] Post-treatment at selected times, the cells were harvested, washed with ice-cold PBS and used for protein or RNA purification as described below.
Protein immunoblotting: Total protein was extracted using ice-cold radio-immunoprecipitation assay (RIPA) buffer (Millipore Sigma) supplemented with Halt protease- and phosphatise-inhibitor cocktails (Fisher Scientific), 2 mM sodium orthovanadate (New England Biolabs, Inc., USA), and 5 mM sodium fluoride (Millipore Sigma) according to the manufacturer's protocol. Protein content in each sample was estimated using Bio-Rad Protein Assay (Bio-Rad, USA). Equal amounts of protein (20-30 μg) were separated on hand-cast SDS/PAGE (6-12%) mini-protein gels and transferred to 0.2 μm Immobilon-Psq polyvinylidene difluoride (PVDF) transfer membrane (Millipore Sigma). Membranes were blocked with 4% bovine serum albumin (BSA; Millipore Sigma) in TRIS-buffered saline (TBS) with 0.1% Tween-20 (TBS-T, Thermo Fisher Scientific) and probed overnight at 4° C. with the primary antibodies (FOXM1, Cell Signaling Technology (CST), Inc., USA; Cleaved Caspase-3, CST; β-actin, Thermo Fisher Scientific) diluted according to the manufacturer's protocol. […] After incubating membranes with the secondary antibodies, the membranes were then washed three times for 10 min each with TBST. Protein bands were developed using SuperSignal™ West Pico PLUS Chemiluminescent Substrate (Thermo Fisher Scientific) and detected using ChemiDoc Imaging System (Bio-Rad).

TAMR cells = type: cell-based
Method: (§1) FIG. 17. […] (A) Prostate cancer (22RV1 and LNCaP) cells were treated with indicated concentrations of paclitaxel alone or in combination with STL001 for 24 hrs. (B) Tamoxifen resistance MCF-7 breast cancer cells (TAM-R) were treated with indicated concentrations of Tamoxifen alone or in combination with STL001 for 24 hrs. In all cases, total protein samples were obtained from cells immediately after treatment and analyzed for FOXM1, cleaved caspase-3 levels via immunoblotting, β-actin was used as internal loading control (n=3). (C) Percent (%) dead cells in TAM-R cells treated with indicated concentrations of Tamoxifen alone or in combination with STL001 for 24 hrs. […] (F) HCC 143 cells with stable shRNA-mediated FOXM1 knockdown (KD) were treated with doxorubicin alone or in combination with STL001 for 24 hrs and compared to parental cells under the same treatment conditions. In all cases, total protein samples were obtained from cells immediately after treatment and analyzed for FOXM1, cleaved caspase-3 levels via immunoblotting, β-actin was used as internal loading control (n=3).

FOXM1 [5] = biological target: T1, FOXM1; set-up: Total protein samples obtain from treated cells were analyzed for FOXM1 protein levels via immunoblotting; endogenous in cells; conditions: solid cancer cell lines; cited from earlier work
FOXM1 [6] = biological target: T1, FOXM1; set-up: Total protein samples obtain from treated cells were analyzed for FOXM1 protein levels via immunoblotting; endogenous in cells; host or cells: KG-1, HL-60, K562, THP-1 leukemia cell lines; conditions: cited from earlier work
22RV1, LNCaP cells = tested on: 22RV1, LNCaP cells
Method: as §1

HCC-1143 cells = tested on: HCC-1143 cells
Method: as §1
Stable FOXM1-expression knockdown in cancer cell: Cells were seeded on commercially available 12-well tissue culture plates to achieve ~40% confluency. […] Transduced cells were selected by their cultivation with puromycin (1.0 μg/mL) for 10 days and then maintained without puromycin as described above.

SMILES: C=C(NC(=O)C(=C)NC(=O)c1csc(C2=N[C@@H]3c4csc(n4)[C@H]4NC(=O)c5csc(n5)[C@H]([C@](C)(O)[C@@H](C)O)NC(=O)[C@H]5CSC(=N5)/C(=C/C)NC(=O)[C@H]([C@@H](C)O)NC(=O)c5csc(n5)[C@]3(CC2)NC(=O)[C@H](C)NC(=O)C(=C)NC(=O)[C@H](C)NC(=O)[C@H]([C@@H](C)CC)N[C@@H]2C=Cc3c([C@H](C)O)cc(nc3[C@H]2O)C(=O)O[C@@H]4C)n1)C(N)=O [thiostrepton]
apoptosis (caspase-3 cleavage) in combination with cytarabine ([1]; KG-1 cells): synergistic induction of apoptosis | FOXM1 level (FOXM1 [2]): down-regulation of FOXM1

SMILES: CC(C)N(C(=O)c1cc(F)ccc1Oc1cncnc1N1CC2(CCN(CC3CCC(NS(C)(=O)=O)CC3)CC2)C1)C(C)C (stereo not drawn) [VTP-50469]
leukemia development in the knock-in murine model (NPM1c mutant AML cells; knock-in murine model): prevent leukemia development | effect on NPM1c mutant AML cells in xenografts (NPM1c mutant AML cells; oral inhibitor, xenografts): able to eradicate NPM1c mutant AML cells in xenografts

effect on FOXM1 protein levels suppressed by STL001 (FOXM1 [2]): rescued FOXM1 protein levels
SMILES: CCN(CC)CCCC(C)Nc1ccnc2cc(Cl)ccc12 (stereo not drawn) [Chloroquine]

FOXM1 level, chemotherapeutic alone (FOXM1 [4]; HCT-116 and HCT-FET): FOXM1 upregulation
SMILES: O=c1[nH]cc(F)c(=O)[nH]1 [5′FU, 5-fluorouracil]
cell death, chemotherapeutic alone [3]: without evident cell death

SMILES: CC(C)C[C@H](NC(=O)[C@H](Cc1ccccc1)NC(=O)c1cnccn1)B(O)O [bortezomib]
apoptosis (caspase-3 cleavage) in combination with cytarabine ([1]; KG-1 cells): synergistic induction of apoptosis | FOXM1 level (FOXM1 [2]): down-regulation of FOXM1

SMILES: CC/C(=C(\c1ccccc1)c1ccc(OCCN(C)C)cc1)c1ccccc1 [tamoxifen]
cell death, tamoxifen alone (TAMR cells): without prominent cell death induction | FOXM1 level, tamoxifen alone (FOXM1 [4]; TAMR cells): FOXM1 upregulation

SMILES: O=C(Oc1cccc(/C=N/Nc2nc(Nc3ccccc3)nc(N3CCOCC3)n2)c1)c1ccco1 [STL427944]
apoptosis (caspase-3 cleavage) in combination with venetoclax ([1]; KG-1/THP-1 cells): synergetic induction of apoptosis | efficiency of sensitization to venetoclax treatment ([1]; KG-1 cells, versus shRNA FOXM1 knockdown): comparable to effects caused by shRNA-mediated FOXM1 knockdown | effect on cytotoxicity of chemotherapeutic drugs (venetoclax, cytarabine) ([1]; THP1, KG-1, K562 cells, 24 hrs): enhances the cytotoxic effect of conventional chemotherapeutic drugs | efficacy in knocking down FOXM1 expression (FOXM1 [4]; ovarian cancer cells (ES-2, OVCAR-8)): lesser efficacy as compared to STL001 | concentrations showing modest FOXM1 suppression (FOXM1 [5]): 25 to 50 µM | concentration showing modest FOXM1 inhibition (FOXM1 [2]; AML cell line KG-1): 25 µM | Potency in AML (FOXM1 [2]; estimated): uM range | FOXM1 protein levels (FOXM1 [2]; leukemia cell lines, increasing concentrations, 24 h): dose-dependent suppression of FOXM1 protein levels; also recorded: efficiently reduces FOXM1 protein levels | sensitivity of treated human cancer cells to platinum-based agents, 5-fluorouracil, taxanes (FOXM1 [6]; human cancer cells): increased sensitivity to cytotoxic effects of conventional chemotherapeutic treatments | effect on FOXM1 (FOXM1 [6]; relocalization of nuclear FOXM1 to cytoplasm, degradation by autophagosomes): selectively suppresses FOXM1

SMILES: CCC(=C/[C@H](C)C/C=C/C(C)=C/[C@@H](C)C(=O)[C@@H](C)[C@H](O)[C@@H](C)C/C(C)=C/C(=O)O)/C=C/[C@@H]1OC(=O)C=C[C@@H]1C [Leptomycin B]
effect on FOXM1 protein levels suppressed by STL001 (FOXM1 [2]): rescued FOXM1 protein levels

SMILES: CC(=O)O[C@H]1C(=O)[C@@]2(C)[C@H]([C@H](OC(=O)c3ccccc3)[C@]3(O)C[C@H](OC(=O)[C@H](O)[C@@H](NC(=O)c4ccccc4)c4ccccc4)C(C)=C1C3(C)C)[C@]1(OC(C)=O)CO[C@@H]1C[C@@H]2O [paclitaxel]
cytotoxic effects, chemotherapeutic alone (22RV1, LNCaP cells): without showing any cytotoxic effects | cellular FOXM1 protein levels, chemotherapeutic alone (FOXM1 [4]; 22RV1, LNCaP, sublethal concentrations): prominent increase in cellular FOXM1 protein levels

SMILES: COc1cccc2c1C(=O)c1c(O)c3c(c(O)c1C2=O)C[C@@](O)(C(=O)CO)C[C@@H]3O[C@H]1C[C@H](N)[C@H](O)[C@H](C)O1 [doxorubicin]
cytotoxic effects, DNA-damaging agent alone (HCC-1143 cells): without showing prominent cytotoxic effects | cellular FOXM1 protein, DNA-damaging agent alone (FOXM1 [4]; HCC-1143, sub-lethal concentrations): significantly higher levels of cellular FOXM1 protein | FOXM1 protein abundance, chemotherapeutic alone (FOXM1 [4]; OVCAR-8, ES-2, sub-lethal concentrations): significant increase in FOXM1 protein abundance
